# Test results published in ChEMBL document CHEMBL1125951, “Synthesis and dopaminergic activity of the enantiomers of 6-methyl-4,5a,6,7,8-hexahydrothiazolo[4,5-f]quinolin-2-amine (PD 128483)” (Bioorg Med Chem Lett, 1991).
# Legend:
# Rattus norvegicus [1] = assay: Compound was evaluated for reversal of the increase in rat striatum DOPA accumulation produced by the pretreatment with GBL (750 mg/Kg, ip) and NSD 1015 (100 mg/Kg, ip); type: functional
# D(2) dopamine receptor = D(2) dopamine receptor (Rattus norvegicus, UniProt P61169); assay: In vitro binding affinity to Dopamine receptor D2 in rat striatal membranes using D2 antagonist [3H]spiperone; type: cell membranes, Striatum, Membrane
# D(1A) dopamine receptor = D(1A) dopamine receptor (Rattus norvegicus, UniProt P18901); assay: In vitro binding affinity to Dopamine receptor D1 in rat striatal membranes using D1 antagonist [3H]SCH-23390; type: cell membranes, Striatum, Membrane
# Rattus norvegicus [2] = assay: Compound was evaluated for inhibition of the spontaneous firing of substantia nigra DA neurons in anesthetized rats at 2.5 mg/Kg (ip); type: functional
# [3] = biological target: Dopamine receptors; D1 & D2 (Rattus norvegicus, UniProt P18901+P61169); assay: In vitro binding affinity to Dopamine receptor D1/Dopamine receptor D2 in rat striatal membranes using [3H]N-propylnorapomorphine; type: cell membranes, Striatum, Membrane
# Rattus norvegicus [4] = assay: Compound was evaluated for reversal of the increase in rat striatum DOPA accumulation produced by the pretreatment with GBL (750 mg/kg, ip) and NSD 1015 (100 mg/Kg, ip); type: functional
# Rattus norvegicus [5] = assay: Compound (2.0 mg/kg ip.) was evaluated for reversal of the increase in rat striatum DOPA accumulation produced by the pretreatment with GBL (750 mg/Kg, ip) and NSD 1015 (2 mg/Kg, ip); type: functional
# Rattus norvegicus [6] = assay: Compound was evaluated for inhibition of the spontaneous firing of substantia nigra DA neurons in anesthetized rats at 0.25 mg/Kg (ip); type: functional
# Chain of D(1A) dopamine receptor (P18901 whole entry): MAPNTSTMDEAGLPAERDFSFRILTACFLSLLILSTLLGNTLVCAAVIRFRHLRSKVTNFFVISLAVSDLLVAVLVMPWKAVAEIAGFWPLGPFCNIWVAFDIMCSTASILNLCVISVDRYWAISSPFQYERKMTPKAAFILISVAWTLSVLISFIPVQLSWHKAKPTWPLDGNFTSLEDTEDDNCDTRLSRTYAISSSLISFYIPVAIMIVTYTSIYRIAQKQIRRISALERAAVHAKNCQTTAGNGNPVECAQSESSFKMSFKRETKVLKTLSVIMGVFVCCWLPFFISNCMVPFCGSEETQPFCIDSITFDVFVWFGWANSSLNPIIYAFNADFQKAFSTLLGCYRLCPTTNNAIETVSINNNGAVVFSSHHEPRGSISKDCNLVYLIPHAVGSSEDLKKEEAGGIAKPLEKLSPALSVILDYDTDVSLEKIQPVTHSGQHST
# Chain of D(2) dopamine receptor (P61169 whole entry): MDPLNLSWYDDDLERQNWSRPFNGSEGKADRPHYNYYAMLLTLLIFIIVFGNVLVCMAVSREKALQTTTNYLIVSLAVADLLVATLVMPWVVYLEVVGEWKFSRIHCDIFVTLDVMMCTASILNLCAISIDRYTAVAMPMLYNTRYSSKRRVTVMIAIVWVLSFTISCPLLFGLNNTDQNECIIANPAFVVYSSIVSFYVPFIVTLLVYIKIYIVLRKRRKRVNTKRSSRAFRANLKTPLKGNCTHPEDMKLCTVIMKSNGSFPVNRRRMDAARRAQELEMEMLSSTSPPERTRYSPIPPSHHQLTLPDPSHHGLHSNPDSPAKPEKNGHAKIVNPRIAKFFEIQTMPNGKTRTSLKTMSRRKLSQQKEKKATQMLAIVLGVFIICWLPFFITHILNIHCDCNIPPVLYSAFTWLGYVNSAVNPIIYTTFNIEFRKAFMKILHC
Compound,ED50 (Rattus norvegicus [1]),IC50 (D(2) dopamine receptor),IC50 (D(1A) dopamine receptor),inhibition in vivo at 2.5 mg/kg (Rattus norvegicus [2]),IC50 [3],ED50 (Rattus norvegicus [4]),Inhibition (Rattus norvegicus [5]),inhibition in vivo at 0.25 mg/kg (Rattus norvegicus [6])
CN1CCC=C2c3nc(N)sc3CC[C@H]21,0.5 mg/kg,376 nM,> 20000 nM,99%,127 nM,–,–,–
CCCN1CCC=C2c3nc(N)sc3CC[C@@H]21,> 10 mg/kg,–,> 15000 nM,22%,–,–,–,–
CCCN1CCC=C2c3nc(N)sc3CC[C@H]21,4.8 mg/kg,–,> 15000 nM,91%,–,–,–,–
CN1CCC=C2c3nc(N)sc3CC[C@@H]21,–,768 nM,> 20000 nM,67%,464 nM,> 10 mg/kg,–,–
CN1CCc2cccc3c2[C@H]1Cc1ccc(O)c(O)c1-3 [APOMORPHINE],–,–,–,–,–,–,100%,100%
